# Values of other authors as cited in patent US7592468B2, “Production of Δ 9 tetrahydrocannabinol” (Resolution Chemicals Limited, priority 2003, dated 2009).
# Conditions: greater than Δ8-THC
smiles,measurement,value
"CCCCCc1cc(O)c2c(c1)OC(C)(C)[C@@H]1CCC(C)=C[C@@H]21 [Δ9-THC, Delta 9 tetrahydrocannabinol]",psychomimetic activity relative to Δ8-THC,20 times
